Here are results for 18 compounds from patent publication US10508109B2 (priority 2015, dated 2019).

Assay [1] relates to PC14. Put plainly: Cell-based assay, anti-proliferative activity (Cell Counting Kit-8, 72 hours). The settings on record: Homo sapiens, read-out: IC50 (μM) PC14. The procedure, abridged:
(§1)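 IC50 values reflect cell growth measured by Cell Counting Kit-8 following 72 hours of inhibitor exposure across a twofold dilution range up to 100 micro-M.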

The test system of assay [2] is CCD-18Co. Described as above. The settings on record: Homo sapiens, read-out: IC50 (μM) CCD-18Co. The method, boiled down: as §1
The subject of assay [3] is HCT-116. Described as above. The settings on record: Homo sapiens, read-out: IC50 (μM) HCT-116. The method, boiled down: as §1
Assay [4] has as its system HFL1. The assay is described as above. The following applies: Homo sapiens, read-out: IC50 (μM) HFL1. The procedure, abridged:
as §1

In assay [5] the test system is A549. The assay is described as above. The following applies: Homo sapiens, read-out: IC50 (μM) A549. The procedure, abridged: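 Following seeding into 96-well microtiter plates, the cells receive candidate inhibitors, and cellular growth is quantified at the end of the exposure period. An IC50 is computed for each compound.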
Assay [6] concerns the target SUV39H2 (Homo sapiens (Human), UniProt Q9H5I1). The following applies: read-out: IC50 (μM) Suv 39H2 assay; enzyme assay.
Setting [7] is: PC-14, PC14 cells, Cell Counting Kit-8, 72 hours.
[8] abbreviates: CCD-18Co cells, Cell Counting Kit-8, 72 hours.
[9] abbreviates: HCT-116 cells, Cell Counting Kit-8, 72 hours.
Where [10] appears, read: HFL1 cells, Cell Counting Kit-8, 72 hours.
Setting [11] is: A549 cells, Cell Counting Kit-8, 72 hours.
Setting [12] is: PC-14, PC14 cells, 72 hours, Cell Counting Kit-8.
Setting [13] is: CCD-18Co cells, 72 hours, Cell Counting Kit-8.
Where [14] appears, read: HCT-116 cells, 72 hours, Cell Counting Kit-8.
The mark [15] stands for this setting: HFL1 cells, 72 hours, Cell Counting Kit-8.
[16] abbreviates: A549 cells, 72 hours, Cell Counting Kit-8.

Structures can show the parent of a compound that is named as a salt. Where two headings read alike, the source gives them in different places.

Chain of SUV39H2 (Q9H5I1 whole entry): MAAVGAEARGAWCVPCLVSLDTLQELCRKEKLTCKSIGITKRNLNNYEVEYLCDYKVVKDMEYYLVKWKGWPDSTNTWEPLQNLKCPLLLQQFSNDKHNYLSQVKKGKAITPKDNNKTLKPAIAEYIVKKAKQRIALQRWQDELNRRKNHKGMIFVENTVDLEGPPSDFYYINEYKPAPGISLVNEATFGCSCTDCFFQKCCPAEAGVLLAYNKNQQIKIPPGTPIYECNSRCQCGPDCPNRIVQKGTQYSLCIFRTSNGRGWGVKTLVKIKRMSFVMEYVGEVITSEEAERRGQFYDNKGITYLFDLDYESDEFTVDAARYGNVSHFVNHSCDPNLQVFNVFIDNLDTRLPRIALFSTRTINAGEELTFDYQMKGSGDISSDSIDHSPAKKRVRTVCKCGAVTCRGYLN

As for `COc1cc(OCC2CC2)c(-c2cn3ccc(N4CCCC4)cc3n2)cc1Cl` [Example 82, 2-(5-chloro-2-(cyclopropylmethoxy)-4-methoxyphenyl)-7-(pyrrolidin-1-yl)imidazo[1,2-a]pyridine], the IC50 in assay [1] (setting [7]) amounted to 4.7 µM; in assay [2] (setting [8]), 3.8 µM; in assay [3] (setting [9]), 3.2 µM; in assay [4] (setting [10]) it was 2 µM; in assay [5] (setting [11]), 3.5 µM; in assay [6], 0.00538 µM.

Regarding `COc1cc(OC)c(-c2cn3ccc(N4CCC(CCN(C)C)CC4)cc3n2)cc1Cl` [Example 94, 2-(1-(2-(5-chloro-2,4-dimethoxyphenyl)imidazo[1,2-a]pyridin-7-yl)piperidin-4-yl)-N,N-dimethylethanamine], the concentration for half-maximal inhibition (IC50) turned out to be 2.3 µM in assay [1] (setting [7]); 3.6 µM in assay [2] (setting [8]); 2.7 µM in assay [3] (setting [9]); 4.5 µM in assay [4] (setting [10]); 2.5 µM in assay [5] (setting [11]); 0.00887 µM in assay [6].

On to `COc1cc(OC)c(-c2cn3ccc(N4CCOCC4)cc3n2)cc1Cl` [Example 12, 4-(2-(5-chloro-2,4-dimethoxyphenyl)imidazo[1,2-a]pyridin-7-yl)morpholine hydrobromide], for which the half-inhibitory concentration (IC50) stood at 2.9 µM in assay [1] (setting [7]); 9 µM in assay [2] (setting [8]); 5.1 µM in assay [3] (setting [9]); 6.8 µM in assay [4] (setting [10]); 6.9 µM in assay [5] (setting [11]); 0.012 µM in assay [6].

Consider `COc1cc(OC)c(-c2cn3ccc(N4CCN(C(=O)C5CC5)CC4)nc3n2)cc1Cl` [Example 242, (4-(2-(5-Chloro-2,4-dimethoxyphenyl)imidazo[1,2-a]pyrimidin-7-yl)-piperazin-1-yl)(cyclopropyl)methanone], for which the 50% inhibitory concentration (IC50) in assay [1] (setting [12]) turned out to be 6.3 µM; in assay [2] (setting [13]), 10 µM; in assay [3] (setting [14]), 10 µM; in assay [4] (setting [15]), 10 µM; in assay [5] (setting [16]) it was 10 µM; in assay [6] it was 0.0154 µM.

`COc1cc(OC)c(-c2cn3ccc(OC4CCN(c5ccnc(N)n5)CC4)cc3n2)cc1Cl` [Example 284, 4-(4-((2-(5-chloro-2,4-dimethoxyphenyl)imidazo[1,2-a]pyridin-7-yl)oxy)-piperidin-1-yl)pyrimidin-2-amine]: the IC50 in assay [1] (setting [12]) worked out at 0.98 µM; in assay [2] (setting [13]), 1.3 µM; in assay [3] (setting [14]), 0.71 µM; in assay [4] (setting [15]), 1.1 µM; in assay [5] (setting [16]), 1.5 µM; in assay [6] it was 0.0918 µM.

`COc1cc(OC)c(-c2cn3ccc(N4CCN(CC#N)CC4)cc3n2)cc1Cl` [Example 95, 2-(4-(2-(5-chloro-2,4-dimethoxyphenyl)imidazo[1,2-a]pyridin-7-yl)piperazin-1-yl)acetonitrile]: the IC50 is 3 µM in assay [1] (setting [7]); 5.3 µM in assay [2] (setting [8]); 3.4 µM in assay [3] (setting [9]); 4.1 µM in assay [4] (setting [10]); 2.9 µM in assay [5] (setting [11]); 0.00807 µM in assay [6].

On to `COc1cc(OC)c(-c2cn3ccc(N4CCN(S(=O)(=O)C5CCCC5)CC4)nc3n2)cc1Cl` [Example 204, 2-(5-chloro-2,4-dimethoxyphenyl)-7-[4-(cyclopentylsulfonyl)-piperazin-1-yl]imidazo[1,2-a]pyrimidine], for which the IC50 in assay [1] (setting [7]) stood at 0.6 µM; in assay [2] (setting [8]), 4.5 µM; in assay [3] (setting [9]), 1 µM; in assay [4] (setting [10]), 1.7 µM; in assay [5] (setting [11]), 0.75 µM; in assay [6], 0.0448 µM.

For `COc1cc(OC)c(-c2cn3ccc(N4CC[C@H](NCc5cccnc5)C4)cc3n2)cc1Cl` [Example 300, (S)-1-(2-(5-chloro-2,4-dimethoxyphenyl)imidazo[1,2-a]pyridin-7-yl)-N-(pyridin-3-ylmethyl)pyrrolidin-3-amine], the 50% inhibitory concentration (IC50) came out at 3.5 µM in assay [1] (setting [12]); 6.1 µM in assay [2] (setting [13]); 4.7 µM in assay [3] (setting [14]); 7.1 µM in assay [4] (setting [15]); 6 µM in assay [5] (setting [16]); 0.0127 µM in assay [6].

Regarding `COc1cc(OC)c(-c2cn3ccc(N4CCN(S(=O)(=O)C(C)C)CC4)cc3n2)cc1Cl` [Example 178, 2-(5-chloro-2,4-dimethoxyphenyl)-7-[4-(isopropylsulfonyl)piperazin-1-yl]imidazo[1,2-a]pyridine], the 50% inhibitory concentration (IC50) is 0.74 µM in assay [1] (setting [7]); 2.1 µM in assay [2] (setting [8]); 1.5 µM in assay [3] (setting [9]); 1.7 µM in assay [4] (setting [10]); 1 µM in assay [5] (setting [11]); 0.0143 µM in assay [6].

As for `COc1cc(OC)c(-c2cn3ccc(NC(=O)CN)cc3n2)cc1Cl` [Example 166, 2-amino-N-(2-(5-chloro-2,4-dimethoxyphenyl)imidazo[1,2-a]pyridin-7-yl)-acetamide], the IC50 in assay [1] (PC-14, 72 h) is 6.5 µM; in assay [2] (CCD-18Co, 72 h), 7.9 µM; in assay [3] (HCT-116, 72 h), 6.1 µM; in assay [4] (HFL1, 72 h) it was 22 µM; in assay [5] (A549, 72 h), 7.1 µM; in assay [6], 0.031 µM.

Regarding `COc1cc(OC)c(-c2cn3cc(NCCN)c(OC)cc3n2)cc1Cl` [Example 75, N^1-(2-(5-chloro-2,4-dimethoxyphenyl)-7-methoxyimidazo[1,2-a]-pyridin-6-yl)ethane-1,2-diamine], the IC50 is 5.7 µM in assay [1] (setting [7]); 7.2 µM in assay [2] (setting [8]); 6.7 µM in assay [3] (setting [9]); 3.5 µM in assay [4] (setting [10]); 6.9 µM in assay [5] (setting [11]); 0.00271 µM in assay [6].

Turning to `COc1cc(OC)c(-c2cn3cc(NCCN)c(N4CCNCC4)nc3n2)cc1Cl` [Example 223, N^1-(2-(5-chloro-2,4-dimethoxy-phenyl)-7-(piperazin-1-yl)imidazo[1,2-a]pyrimidin-6-yl)ethane-1,2-diamine], the IC50 in assay [1] (setting [12]) stood at 10 µM; in assay [2] (setting [13]), 10 µM; in assay [3] (setting [14]), 10 µM; in assay [4] (setting [15]), 10 µM; in assay [5] (setting [16]) it was 10 µM; in assay [6], 0.00866 µM.

On to `COc1cc(OC)c(-c2cn3ccc(-c4ccc(NCc5ncc[nH]5)cc4)cc3n2)cc1Cl` [Example 270, N-((1H-imidazol-2-yl)methyl)-4-(2-(5-chloro-2,4-dimethoxyphenyl)-imidazo[1,2-a]pyridin-7-yl)aniline], for which the IC50 in assay [1] (setting [12]) came out at 0.45 µM; in assay [2] (setting [13]), 1.7 µM; in assay [3] (setting [14]), 1 µM; in assay [4] (setting [15]), 0.89 µM; in assay [5] (setting [16]), 0.99 µM; in assay [6] it was 0.0199 µM.

Regarding `COc1cc(OC)c(-c2cn3ccc(N[C@H]4CC[C@H](Nc5ccccn5)CC4)cc3n2)cc1Cl` [Example 287, N^1-(2-(5-chloro-2,4-dimethoxyphenyl)imidazo[1,2-a]pyridin-7-yl)-N^4-(pyridin-2-yl)-trans-cyclohexane-1,4-diamine], the IC50 was 0.94 µM in assay [1] (setting [12]); 0.81 µM in assay [2] (setting [13]); 0.91 µM in assay [3] (setting [14]); 0.78 µM in assay [4] (setting [15]); 0.8 µM in assay [5] (setting [16]); 0.0327 µM in assay [6].

With `COc1cc(OC)c(-c2cn3ccc(N4CCN(CCC(N)=O)CC4)cc3n2)cc1Cl` [Example 137, 3-(4-(2-(5-chloro-2,4-dimethoxyphenyl)imidazo[1,2-a]pyridin-7-yl)piperazin-1-yl)propanamide], the IC50 is 12 µM in assay [1] (setting [7]); 14 µM in assay [2] (setting [8]); 14 µM in assay [3] (setting [9]); 13 µM in assay [4] (setting [10]); 24 µM in assay [5] (setting [11]); 0.00454 µM in assay [6].

Turning to `COc1cc(OC)c(-c2cn3ccc(N4CCC(N)C4)cc3n2)cc1Cl` (stereo not drawn) [Example 33, 1-[2-(5-chloro-2,4-dimethoxyphenyl)imidazo[1,2-a]pyridin-7-yl]pyrrolidin-3-amine], the IC50 in assay [1] (setting [7]) is 1.7 µM; in assay [2] (setting [8]), 3.2 µM; in assay [3] (setting [9]), 3.3 µM; in assay [4] (setting [10]), 2.2 µM; in assay [5] (setting [11]), 3.1 µM; in assay [6], 0.00704 µM.

For `COc1cc(OC)c(-c2cn3ccc(NC(=O)[C@@H]4CCCN4C)cc3n2)cc1Cl` [Example 263, (S)—N-(2-(5-chloro-2,4-dimethoxyphenyl)imidazo[1,2-a]pyridin-7-yl)-1-methylpyrrolidine-2-carboxamide], the IC50 in assay [1] (setting [12]) came out at 1.7 µM; in assay [2] (setting [13]), 1.4 µM; in assay [3] (setting [14]), 0.99 µM; in assay [4] (setting [15]) it was 1.8 µM; in assay [5] (setting [16]), 1.8 µM; in assay [6] it was 0.065 µM.

Regarding `COc1cc(OC)c(-c2cn3cc(NCCN)c(N4CCN(S(=O)(=O)C5CC5)CC4)cc3n2)cc1Cl` [Example 225, N^1-(2-(5-chloro-2,4-dimethoxyphenyl)-7-(4-(cyclopropylsulfonyl)-piperazin-1-yl)imidazo[1,2-a]pyridin-6-yl)ethane-1,2-diamine], the IC50 was 6.9 µM in assay [1] (setting [12]); 7.3 µM in assay [2] (setting [13]); 9.6 µM in assay [3] (setting [14]); 7.3 µM in assay [4] (setting [15]); 10 µM in assay [5] (setting [16]); 0.0022 µM in assay [6].

One may read the IC50 as the concentration that inhibits the measured activity by half.
